Experimental data from US5108990A, “Glutamic acid derivatives” (Roussel Uclaf, priority 1987, dated 1992).
Counter-ions that a name gives are not always drawn.

Key:
[1] = test system: monocytes; assay: Stimulation of monocytic cells; Interleukin-1 (IL-1) test on supernatants/lysates (mouse thymocyte co-mitogenic assay); type: cell-based, human; settings: for stimulation of monocytes and their IL-1 production: adherent blood monocytes cultured 24 or 48 hours with test product; for synergy with interferon-γ and or LPS: monocyte stimulation (IL-1 and TNF production), IFN-γ 10^3 U/ml, a dose inactive alone
Description: (§1) The mononuclear cells of the circulating blood of normal donors were separated by the classical technique described by Boyum using a Ficoll gradient. After being washed, the mononuclear cells were incubated at 37° C. for 1 hour in the proportion of 5×10^6 monocytes (NSE^+ cells) per ml of culture medium, 5 ml per culture bottle. The culture medium used in this experiment was composed of RPMI 1640 to which antibiotics and HEPES buffer had been added. After one hour, the non-adherent cells were removed by washing the bottles with medium previously brought to 37° C., and the adherent cells, composed essentially of monocytes (>90%), were cultured again in the presence of different amounts of test products in a PBS medium (Dulbecco) without Ca^2+ or Mg^2+. Culturing was continued for 24 or 48 hours and the cell supernatants were then withdrawn, centrifuged, aliquoted and stored either at -80° C. or at -20° C. The culture supernatants were replaced in the bottles by the same amount of pyrogen-free distilled water to lyse the cells. The lysate was recovered, aliquoted and also stored at -20° C.
(§2) Tests for the presence in the supernants of monokines (interleukin-1 and tumor necrosis factor) on the basis of their biological activity.
This test was first described by Gery et al in 1972 [Gery et al, 1972 Potentiation of the T Lymphocyte response to mitogens. II. The Cellular Source of Potentiating Mediator(s). J. Exp. Med., 136-143]. It is based on the co-mitogenic action of IL-1 in the presence of an antigen (mimicked by phytohaemagglutinin in the test) on mouse thymocytes. 1.5×10^6 thymocytes of C3 H/HeJ mice (supplied by C.S.E.A.L. of Orleans) were cultured for 3 days in the presence of different dilutions of cell supernatants and lysates likely to contain IL-1 activity, and Wellcome PHA-P (1 μg/ml), in culture plates having 96 flat-bottomed wells, in a final volume of 200 μl of medium composed of RPMI 1640 containing, in addition to antibiotics (penicillin 1 μ/ml streptomycin 1000 μ/ml, 1 mM HEPES buffer, 2 mM glutamine, 5% calf serum and 5×10^-5 M 2-mercaptoethanol). After 68 hours of culturing, 1 μCi of tritiated thymidien was added to each well ([methyl^3 H]-thymidine, CEA Saclay, TMM79A, specific activity […]), and the radioactivity incorporated by the cells was measured after the cultures had been filtered on a Skaton type semi-automatic collecting apparatus and the filters counted in a scintillation counter (LKB). The results were expressed as the difference between the pulses per minute incorporated by the cultures in the presence of supernatants and the pulses per minute incorporated by the control cultures.

[2] = test system: monocytes; assay: Stimulation of monocytic cells; Tumor Necrosis Factor (TNF) test on supernatants (toxicity on L-929 target cells); type: cell-based, human; settings: adherent blood monocytes cultured 24 or 48 hours with test product
Description: as §1, §2
The technique was sensitized by adding actinomycin D to the test. The L cells were distributed in the proportion of 2×10^4 cells per well of a flat-bottomed microplate in 100 μl of RPMI 1640 medium enriched with 5% calf serum, glutamine, HEPES buffer and antibiotics. After 24 hours, different dilutions of the test supernatants were added in a volume of 100 μl, as well as a dose of actinomycin D of 1 μg/ml. After 24 hours of culturing, the number of unlysed viable cells was measured by staining the plates with crystal violet and measuring the optical density of different wells on a multiscan reader.

[3] = test system: human B lymphocytes; assay: Production of immuno-globulins (ELISA of supernatants, alone or with Staphylococcus aureus Cowan); type: cell-based; settings: in the presence of SAC (10^-3 and 10^-4); 0.1, 1 and 10 μg/ml; one week
Description: The same cells were cultivated for a week in the presence of different products to be tested at a dose of 0.1, 1 and 10 μg/ml alone or in the presence of two doses of the bacteria Staphylococcus aureus Cowan (SAC) (10^-3 and 10^-4), bacteria known for stimulating the production of immuno-globulins by the human B lymphocytes in a non-specific manner. The supernatants are collected at the end of the culture, and their content of immuno-globulin is evaluated by standard techniques of detection by the ELISA method using a human anti-immunoglobulin anti-body available commercially. The results are given in ng of immuno-globulin per ml of supernatant.

Structure (SMILES) | stimulation of monocytes and their IL-1 production [1] | synergy with interferon-γ and or LPS [1] | stimulation of monocytes and their TNF production [2] | production of immuno-globulins in the presence of SAC [3]
C=C(CC(N)C(=O)O)CC(NC(=O)CC[C@@H](N)C(=O)O)C(=O)O (stereo partly drawn) [Example 1, 2-amino-6-(γ-D-glutamylamino)-4-methylene-heptanedioic acid] | stimulated | synergy | stimulated | –
C=C(CC(NC(=O)CC[C@@H](N)C(=O)O)C(=O)O)CC(NC(=O)[C@H](C)N)C(=O)O (stereo partly drawn) [Example 2, 2-(L-Alanylamino)-6-(γ-D-glutamylamino)-4-methyleneheptanedioic acid] | stimulated | synergy | stimulated | –
C=C(CC(N)C(=O)O)CC(NC(=O)CC[C@@H](NC(=O)[C@H](C)NC(=O)CCCCCCCCCCCCCCCCC)C(=O)O)C(=O)O (stereo partly drawn) [Example 8, 2-Amino-4-methylene-6-[N-1-oxo-octadecyl)-L-alanyl)-γ-D-glutamyl-amino]-heptanedioic acid and its tri sodium salt] | stimulated | synergy | stimulated | capable of increasing the production of immuno-globulins
C=C(CC(N)C(=O)O)CC(NC(=O)CC[C@@H](NC(=O)CCCCCCCCCCCCCCCCC)C(=O)O)C(=O)O (stereo partly drawn) [Example 9, 2-Amino-4-methylene-6-[[N-(1-oxo-octadecyl)-γ-D-glutamyl]amino]-heptanedioic acid] | stimulated | synergy | stimulated | –
